{"source": "paper PMC5325082", "about": "(Molecular Pharmacology, 2017)", "key": {"[1]": {"molecular_target": "T1, α9χα10χ (α9 and α10 extracellular domains fused to 5-HT3A) (UniProt P23979+P43144+Q9JLB5, L231I/L232I)", "T1 construct": "the extracellular N-terminal domain of the α9 or α10 subunit; expressed in transfected cells; host or cells: tsA201 cells (HEK293-derived), membrane preparation", "test": "[3H]-α-BTX radioligand binding, membranes of transfected tsA201 cells", "parameters": "species or system rat", "experimental": "(§1) Chimeric subunit cDNAs containing the extracellular N-terminal domain of the α9 or α10 subunit fused to the transmembrane and intracellular domain of the mouse 5-HT3A subunit have been described previously ([Baker et al., 2004]). The mammalian cell line tsA201 (derived from the human embryonic kidney 293 cell line) was obtained from Dr. William Green (University of Chicago, Chicago). Cells were cultured in Dulbecco’s modified Eagle’s medium (Invitrogen, Paisley, United Kingdom) containing 2 mM L-GlutaMAX (Invitrogen) plus 10% heat-inactivated fetal calf serum (Sigma, Poole, United Kingdom) with penicillin (100 U/ml) and streptomycin (100 µg/ml) and were maintained in a humidified incubator containing 5% CO2 at 37°C. Cells were transiently transfected using Effectene transfection reagent (QIAGEN, Crawley, United Kingdom) according to the manufacturer’s instructions. In all cases, cells were transfected overnight and assayed for expression approximately 40–48 hours after transfection. To ensure that the levels of radioligand binding were not influenced by differences in the amount of subunit cDNA expressed, the amount of each subunit plasmid DNA and also the total amount of plasmid DNA were kept constant when subunits were expressed singly and in combination. This was achieved by the inclusion of empty plasmid expression vector when single subunits were transfected.\n(§2) Binding studies with [^3H]-α-bungarotoxin (α-BTX) in cell membrane preparations were performed essentially as described previously ([Lansdell and Millar, 2000]; [Harkness and Millar, 2002]). Membranes (typically, 10–100 µg of protein) were incubated with radioligand (final concentration 20 nM) for 150 minutes at 4°C in a total volume of 300 µl in the presence of protease inhibitors leupeptin (2 µg/ml) and pepstatin (1 µg/ml). Our standard protocol for determining nonspecific binding was the addition of 1 mM carbachol, 1 mM nicotine, and 10 µM methyllycaconitine to triplicate samples. […] In all cases the levels of specific binding were determined by subtracting the level of nonspecific binding from the total binding (both of which were determined in triplicate). The data were determined as means of three independent experiments, each performed in triplicate. Radioligand binding was assayed by filtration onto 0.5% polyethylenimine-presoaked Whatman GF/B filters (Sigma-Aldrich, Dorset, England) followed by rapid washing (typically, five washes, each of 4 ml) with ice-cold 10 mM phosphate buffer using a Brandel cell harvester, and radioactivity was determined by scintillation counting. […] Protein concentrations were determined using bovine serum albumin standards (Bio-Rad, Hercules, CA)."}, "[2]": {"molecular_target": "T2, α9χα10χW55T (UniProt P23979+P43144+Q9JLB5, L231I/L232I/W81T)", "T2 construct": "containing the extracellular N-terminal domain of the α9 or α10 subunit fused to the transmembrane and intracellular domain of the mouse 5-HT3A subunit; mouse 5-HT3A subunit transmembrane and intracellular domain (fusion partner); expressed in transfected cells; host or cells: tsA201 (derived from human embryonic kidney 293), transient transfection; membrane preparations", "test": "[3H]-α-BTX radioligand binding, membranes of transfected tsA201 cells", "parameters": "species or system rat", "experimental": "as §1, §2"}, "[3]": {"test_system": "α9χY190T (homomeric)", "assay_type": "binding, rat"}, "[4]": {"test_system": "α10χY190T (homomeric)", "assay_type": "binding, rat"}, "[5]": {"test_system": "α9χY190Tα10χY190T (heteromeric double mutant)", "assay_type": "binding, rat"}, "[6]": {"test_system": "α9χY190Tα10χ", "assay_type": "binding, rat"}, "[7]": {"test_system": "α9χα10χY190T", "assay_type": "binding, rat"}, "[8]": {"test_system": "homomeric α9χW55T receptors", "assay_type": "binding, rat"}, "[9]": {"test_system": "homomeric α10χW55T receptors", "assay_type": "binding, rat"}, "[10]": {"molecular_target": "homomeric α10χ (UniProt P23979+Q9JLB5, L231I/L232I)", "assay_type": "binding, rat"}, "[11]": {"molecular_target": "α9χW55Tα10χ (UniProt P23979+P43144+Q9JLB5, L231I/L232I/W82T)", "assay_type": "binding, rat"}, "[12]": {"test_system": "α9χW55Tα10χW55T", "assay_type": "binding, rat"}}}
{"substance": "α-bungarotoxin [[^3H]-α-BTX]", "values": [{"measurement": "Specific binding of [3H]-α-BTX, fold higher than α9χ expressed alone", "setting": "[1]", "result": 6, "unit": "fold"}, {"measurement": "Specific binding of [3H]-α-BTX", "setting": "[2]", "result": "specific binding levels similar to those observed with wild-type heteromeric α9χα10χ receptors"}, {"measurement": "Specific binding of [3H]-α-BTX", "setting": "[3]", "result": "complete loss of specific binding"}, {"measurement": "Specific binding of [3H]-α-BTX", "setting": "[4]", "result": "complete loss of specific binding"}, {"measurement": "Specific binding of [3H]-α-BTX", "setting": "[5]", "result": "complete loss of specific binding"}, {"measurement": "Specific binding of [3H]-α-BTX, fold higher than homomeric α10χ", "setting": "[6]", "result": 4, "unit": "fold"}, {"measurement": "Specific binding of [3H]-α-BTX, fold lower than wild-type α9χα10χ", "setting": "[6]", "result": 6, "unit": "fold"}, {"measurement": "Specific binding of [3H]-α-BTX, fold lower than wild-type α9χα10χ", "setting": "[7]", "result": 4, "unit": "fold"}, {"measurement": "Specific binding of [3H]-α-BTX", "setting": "[8]", "result": "no detectable specific binding"}, {"measurement": "Specific binding of [3H]-α-BTX", "setting": "[9]", "result": "2.5 ± 0.6", "unit": "fmol/mg"}, {"measurement": "Specific binding of [3H]-α-BTX", "setting": "[10]", "result": "1.4 ± 0.5", "unit": "fmol/mg"}, {"measurement": "Specific binding of [3H]-α-BTX", "setting": "[11]", "result": "binding levels similar to those observed with either α10χ or α10χW55T when expressed alone"}, {"measurement": "Specific binding of [3H]-α-BTX", "setting": "[12]", "result": "binding levels similar to those observed with either α10χ or α10χW55T when expressed alone"}]}
